Results taken from US11629171B2, “Beta-hairpin peptidomimetics” (POLYPHOR AG, priority 2017, dated 2023).
Values after ≈ are worked out from the molar mass of the structure shown. Where a SMILES comes first, the peptide text is derived from it. Bridges are numbered along the chain shown (N, C = ends). Roman numbers before positions name the chains, in order. [ ]: non-standard residue; d: D form. dDab = NCC[C@@H](N)C(=O)O; Nle = CCCC[C@H](N)C(=O)O; Orn = NCCC[C@H](N)C(=O)O; Dab = NCC[C@H](N)C(=O)O; Dap = NC[C@H](N)C(=O)O

Experiments:
Assay type in all cases: cell-based
[1] = system: Escherichia coli 926415; conditions: 926415
Method in brief: (§1)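 CLSI broth microdilution in cation-adjusted Mueller-Hinton II broth with 0.002% polysorbate 80 (final), inoculum appr. 10^6 CFU/mL, peptides in serial two-fold dilutions. MIC (μg/mL) is the lowest concentration without visible growth after 18-20 h at 35° C.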

[2] = system: Klebsiella pneumoniae 968733; conditions: 968733
Method in brief: as §1

[3] = system: Enterobacter cloacae 848840; conditions: 848840
Method in brief: as §1

[4] = system: Acinetobacter baumannii DSM 30008; conditions: DSM 30008
Method in brief: as §1

[5] = system: Acinetobacter baumannii 872842; conditions: 872842
Method in brief: as §1

[6] = system: Klebsiella pneumoniae SSI #3010; conditions: SSI #3010
Method in brief: as §1

[7] = system: Pseudomonas aeruginosa ATCC 27853; conditions: ATCC 27853
Method in brief: as §1

[8] = system: Escherichia coli ATCC 25922; conditions: ATCC 25922
Method in brief: as §1

[9] = system: human red blood cells (hRBC); assay: Hemolysis; conditions: red cells of human, 1 h, 200
Method in brief: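 Washed fresh human RBC (20% v/v) incubated with peptide at 200 μg/mL for 1 h at 37° C with shaking. Supernatant OD540 measured after dilution, blank corrected; percent hemolysis = OD540 peptide / OD540 of 2% Triton X-100 lysis × 100, PBS with 10% water as 0%.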

| Structure (SMILES) | MIC [1] [µg/mL] | MIC [2] [µg/mL] | MIC [3] [µg/mL] | Acinetobacter baumannii DSM 30008 MIC [4] [µg/mL] | MIC [5] [µg/mL] | Klebsiella pneumoniae SSI #3010 MIC [6] [µg/mL] | Pseudomonas aeruginosa ATCC 27853 MIC [7] [µg/mL] | Escherichia coli ATCC 25922 MIC [8] [µg/mL] | Hemolysis at 200 μg/mL [9] [%] |
| --- | --- | --- | --- | --- | --- | --- | --- | --- | --- |
| CCCC[C@@H]1NC(=O)[C@H](CO)NC(=O)[C@H](Cc2c[nH]c3ccccc23)NC(=O)[C@H](CO)NC(=O)[C@@H](CCN)NC(=O)[C@H](CCC(=O)N[C@@H](CCN)C(=O)N[C@H](C(=O)N[C@@H](CN)C(=O)N[C@H]2CCNC(=O)[C@H]([C@@H](C)O)NC(=O)[C@H](CCN)NC(=O)[C@H](CCN)NC(=O)[C@H](CC(C)C)NC(=O)[C@@H](CC(C)C)NC(=O)[C@H](CCN)NC2=O)[C@@H](C)O)NC(=O)[C@H](CCN)NC(=O)[C@H](Cc2ccc(O)cc2)NC(=O)[C@@H](NC(=O)[C@@H](NC(C)=O)C(C)C)CSSC[C@@H](C(=O)N[C@@H](CO)C(N)=O)NC1=O [Ex. 316] (I: Ac-VCY[Dab]E[dDab]SWS[Nle]CS-NH2 / II: [Dab]T[Dap][Dab][Dab][dL]L[Dab][Dab]T; disulfide I:2-I:11; amide I:5-II:N; lactam II:4-II:C) | 0.0625 (≈ 0.0259 µM) | 0.0625 (≈ 0.0259 µM) | 0.0625 (≈ 0.0259 µM) | 0.01562 | 0.03125 (≈ 0.013 µM) | 0.0625 | 0.0625 | 0.01562 | <1 |
| CC(=O)N[C@H](C(=O)N[C@H]1CCCNC(=O)C[C@@H](C(=O)N[C@@H](CO)C(N)=O)NC(=O)[C@H](C(C)C)NC(=O)[C@H](CO)NC(=O)[C@H](Cc2c[nH]c3ccccc23)NC(=O)[C@H](CO)NC(=O)[C@@H](CCN)NC(=O)[C@H](CCC(=O)N[C@@H](CCN)C(=O)N[C@H](C(=O)N[C@@H](CN)C(=O)N[C@H]2CCNC(=O)[C@H]([C@@H](C)O)NC(=O)[C@H](CCN)NC(=O)[C@H](CCN)NC(=O)[C@H](CC(C)C)NC(=O)[C@@H](CC(C)C)NC(=O)[C@H](CCN)NC2=O)[C@@H](C)O)NC(=O)[C@H](CCN)NC(=O)[C@H](Cc2ccc(O)cc2)NC1=O)C(C)C [Ex. 319] (I: Ac-V[Orn]Y[Dab]E[dDab]SWSVDS-NH2 / II: [Dab]T[Dap][Dab][Dab][dL]L[Dab][Dab]T; lactam I:2-I:11, II:4-II:C; amide I:5-II:N) | 1 (≈ 0.416 µM) | 4 (≈ 1.66 µM) | 1 (≈ 0.416 µM) | 0.125 | 0.5 (≈ 0.208 µM) | 0.25 | 0.125 | 0.0625 | <1 |
| CC(=O)N[C@H](C(=O)N[C@H]1CNC(=O)CC[C@@H](C(=O)N[C@@H](CO)C(N)=O)NC(=O)[C@H](C(C)C)NC(=O)[C@H](CO)NC(=O)[C@H](Cc2c[nH]c3ccccc23)NC(=O)[C@H](CO)NC(=O)[C@@H](CCN)NC(=O)[C@H](CCC(=O)N[C@@H](CCN)C(=O)N[C@H](C(=O)N[C@@H](CN)C(=O)N[C@H]2CCNC(=O)[C@H]([C@@H](C)O)NC(=O)[C@H](CCN)NC(=O)[C@H](CCN)NC(=O)[C@H](CC(C)C)NC(=O)[C@@H](CC(C)C)NC(=O)[C@H](CCN)NC2=O)[C@@H](C)O)NC(=O)[C@H](CCN)NC(=O)[C@H](Cc2ccc(O)cc2)NC1=O)C(C)C [Ex. 320] (I: Ac-V[Dap]Y[Dab]E[dDab]SWSVES-NH2 / II: [Dab]T[Dap][Dab][Dab][dL]L[Dab][Dab]T; lactam I:2-I:11, II:4-II:C; amide I:5-II:N) | 4 (≈ 1.67 µM) | 8 (≈ 3.34 µM) | 2 (≈ 0.836 µM) | 0.5 | 1 (≈ 0.418 µM) | 0.125 | 0.25 | 0.0625 | <1 |
| CC(=O)N[C@H](C(=O)N[C@H]1CCNC(=O)CC[C@@H](C(=O)N[C@@H](CO)C(N)=O)NC(=O)[C@H](C(C)C)NC(=O)[C@H](CO)NC(=O)[C@H](Cc2c[nH]c3ccccc23)NC(=O)[C@H](CO)NC(=O)[C@@H](CCN)NC(=O)[C@H](CCC(=O)N[C@@H](CCN)C(=O)N[C@H](C(=O)N[C@@H](CCN)C(=O)N[C@H]2CCNC(=O)[C@H]([C@@H](C)O)NC(=O)[C@H](CCN)NC(=O)[C@H](CCN)NC(=O)[C@H](CC(C)C)NC(=O)[C@@H](CC(C)C)NC(=O)[C@H](CCN)NC2=O)[C@@H](C)O)NC(=O)[C@H](CCN)NC(=O)[C@H](Cc2ccc(O)cc2)NC1=O)C(C)C [Ex. 321] (I: Ac-V[Dab]Y[Dab]E[dDab]SWSVES-NH2 / II: [Dab]T[Dab][Dab][Dab][dL]L[Dab][Dab]T; lactam I:2-I:11, II:4-II:C; amide I:5-II:N) | 0.5 (≈ 0.207 µM) | 1 (≈ 0.413 µM) | 0.25 (≈ 0.103 µM) | 0.125 | 0.25 (≈ 0.103 µM) | 0.125 | 0.125 | 0.0625 | 0 |

Second part, led by results:

| MIC [1] [µg/mL] | MIC [2] [µg/mL] | MIC [3] [µg/mL] | Acinetobacter baumannii DSM 30008 MIC [4] [µg/mL] | MIC [5] [µg/mL] | Klebsiella pneumoniae SSI #3010 MIC [6] [µg/mL] | Pseudomonas aeruginosa ATCC 27853 MIC [7] [µg/mL] | Escherichia coli ATCC 25922 MIC [8] [µg/mL] | Structure (SMILES) | Hemolysis at 200 μg/mL [9] [%] |
| --- | --- | --- | --- | --- | --- | --- | --- | --- | --- |
| 0.125 (≈ 0.052 µM) | 0.25 (≈ 0.104 µM) | 0.0625 (≈ 0.026 µM) | 0.0625 | 0.0625 (≈ 0.026 µM) | 0.125 | 0.125 | 0.0625 | CC[C@H](C)[C@@H]1NC(=O)[C@H](CO)NC(=O)[C@H](Cc2c[nH]c3ccccc23)NC(=O)[C@H](CO)NC(=O)[C@@H](CCN)NC(=O)[C@H](CCC(=O)N[C@@H](CCN)C(=O)N[C@H](C(=O)N[C@@H](CN)C(=O)N[C@H]2CCNC(=O)[C@H]([C@@H](C)O)NC(=O)[C@H](CCN)NC(=O)[C@H](CCN)NC(=O)[C@H](CC(C)C)NC(=O)[C@@H](CC(C)C)NC(=O)[C@H](CCN)NC2=O)[C@@H](C)O)NC(=O)[C@H](CN)NC(=O)[C@H](Cc2ccc(O)cc2)NC(=O)[C@@H](NC(=O)[C@@H](NC(C)=O)C(C)C)CCNC(=O)CC[C@@H](C(=O)N[C@@H](CO)C(N)=O)NC1=O [Ex. 322] (I: Ac-V[Dab]Y[Dap]E[dDab]SWSIES-NH2 / II: [Dab]T[Dap][Dab][Dab][dL]L[Dab][Dab]T; lactam I:2-I:11, II:4-II:C; amide I:5-II:N) | <1 |
| 0.25 (≈ 0.104 µM) | 0.5 (≈ 0.208 µM) | 0.125 (≈ 0.052 µM) | 0.0625 | 0.0625 (≈ 0.026 µM) | 0.125 | 0.125 | 0.0625 | CC[C@H](C)[C@@H]1NC(=O)[C@H](CO)NC(=O)[C@H](Cc2c[nH]c3ccccc23)NC(=O)[C@H](CO)NC(=O)[C@@H](CCN)NC(=O)[C@H](CCC(=O)N[C@@H](CCN)C(=O)N[C@H](C(=O)N[C@@H](CN)C(=O)N[C@H]2CCNC(=O)[C@H]([C@@H](C)O)NC(=O)[C@H](CCN)NC(=O)[C@H](CCN)NC(=O)[C@H](CC(C)C)NC(=O)[C@@H](CC(C)C)NC(=O)[C@H](CCN)NC2=O)[C@@H](C)O)NC(=O)[C@H](CCN)NC(=O)[C@H](Cc2ccc(O)cc2)NC(=O)[C@@H](NC(=O)[C@@H](NC(C)=O)C(C)C)CCNC(=O)C[C@@H](C(=O)N[C@@H](CO)C(N)=O)NC1=O [Ex. 323] (I: Ac-V[Dab]Y[Dab]E[dDab]SWSIDS-NH2 / II: [Dab]T[Dap][Dab][Dab][dL]L[Dab][Dab]T; lactam I:2-I:11, II:4-II:C; amide I:5-II:N) | <1 |
| 0.125 (≈ 0.0517 µM) | 0.5 (≈ 0.207 µM) | 0.125 (≈ 0.0517 µM) | 0.0625 | 0.125 (≈ 0.0517 µM) | 0.0625 | 0.0625 | 0.0625 | CC[C@H](C)[C@@H]1NC(=O)[C@H](CO)NC(=O)[C@H](Cc2c[nH]c3ccccc23)NC(=O)[C@H](CO)NC(=O)[C@@H](CCN)NC(=O)[C@H](CCC(=O)N[C@@H](CCN)C(=O)N[C@H](C(=O)N[C@@H](CN)C(=O)N[C@H]2CCNC(=O)[C@H]([C@@H](C)O)NC(=O)[C@H](CCN)NC(=O)[C@H](CCN)NC(=O)[C@H](CC(C)C)NC(=O)[C@@H](CC(C)C)NC(=O)[C@H](CCN)NC2=O)[C@@H](C)O)NC(=O)[C@H](CCN)NC(=O)[C@H](Cc2ccc(O)cc2)NC(=O)[C@@H](NC(=O)[C@@H](NC(C)=O)C(C)C)CCNC(=O)CC[C@@H](C(=O)N[C@@H](CO)C(N)=O)NC1=O [Ex. 324] (I: Ac-V[Dab]Y[Dab]E[dDab]SWSIES-NH2 / II: [Dab]T[Dap][Dab][Dab][dL]L[Dab][Dab]T; lactam I:2-I:11, II:4-II:C; amide I:5-II:N) | <1 |
